Data as given in the supplement of paper PMC10307832.

How the values were obtained:
Assay in all cases: relative viability (nuclei count vs DMSO), 5 days (fraction); higher = more cells survive
[1] = compound: CN[C@@H]1C[C@H]2O[C@@](C)([C@@H]1OC)n1c3ccccc3c3c4c(c5c6ccccc6n2c5c31)C(=O)NC4 [Staurosporine] + CC(=O)Nc1cccc(-n2c(=O)n(C3CC3)c(=O)c3c(Nc4ccc(I)cc4F)n(C)c(=O)c(C)c32)c1 [Trametinib] (partner 0.02 µM)
How it was run: (§1)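 A single step with final 0.05% Triton X-100, 1% formaldehyde and 1 ug/ml Hoechst fixed the cells and stained nuclei 5 days after treatment. Lung cancer cell lines in 1536-well plates had been treated by pin tool the day after seeding with one drug alone or a fixed anchor-drug dose plus five library-drug doses (not always all listed) in √10 steps, and nuclei were counted on 4× images. Relative viability is the ratio of nuclei in treated wells to nuclei in vehicle wells, taken as the median of duplicate plates.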

[2] = compound: CN[C@@H]1C[C@H]2O[C@@](C)([C@@H]1OC)n1c3ccccc3c3c4c(c5c6ccccc6n2c5c31)C(=O)NC4 [Staurosporine] + O=C(CCCCCCC(=O)Nc1ccccc1)NO [Vorinostat] (partner 1 µM)
How it was run: as §1

[3] = compound: CC1=C(CC(=O)O)c2cc(F)ccc2/C1=C\c1ccc([S+](C)[O-])cc1 [Sulindac] + Cc1nc(NC(=O)N2CCC[C@H]2C(N)=O)sc1-c1ccnc(C(C)(C)C(F)(F)F)c1 [Alpelisib] (partner 2 µM)
How it was run: as §1

[4] = compound: O=c1[nH]cc(F)c(=O)[nH]1 [5-Fluorouracil] + Cc1nc(Nc2ncc(C(=O)Nc3c(C)cccc3Cl)s2)cc(N2CCN(CCO)CC2)n1 [Dasatinib] (partner 0.075 µM)
How it was run: as §1

| Cell Line | relative viability ([1]; first compound 0.005 µM) | relative viability ([1]; first compound 0.01581 µM) | relative viability ([1]; first compound 0.05 µM) | relative viability ([1]; first compound 0.1581 µM) | relative viability ([1]; first compound 0.5 µM) | relative viability ([2]; first compound 0.005 µM) | relative viability ([2]; first compound 0.01581 µM) | relative viability ([2]; first compound 0.05 µM) | relative viability ([2]; first compound 0.1581 µM) | relative viability ([2]; first compound 0.5 µM) | relative viability ([3]; first compound 0.08 µM) | relative viability ([3]; first compound 0.253 µM) | relative viability ([3]; first compound 0.8 µM) | relative viability ([3]; first compound 8 µM) | relative viability ([4]; first compound 0.02 µM) | relative viability ([4]; first compound 0.2 µM) | relative viability ([4]; first compound 0.6325 µM) | relative viability ([4]; first compound 2 µM) | relative viability ([3]; first compound 2.53 µM) |
| --- | --- | --- | --- | --- | --- | --- | --- | --- | --- | --- | --- | --- | --- | --- | --- | --- | --- | --- | --- |
| LCLC-97TM1 | 0.168 | 0.115 | 0.103 | 0.0977 | 0.0977 | 0.334 | 0.0752 | 0.205 | 0.113 | 0.0631 | 0.272 | 0.278 | 0.238 | 0.236 | 0.79 | 0.978 | 0.837 | 0.745 | – |
| NCI-H1299 | – | – | – | – | – | – | – | – | – | – | 1.23 | 1.19 | 0.624 | 1.08 | – | – | – | – | 1.2 |
| NCI-H322M | 0.518 | 0.418 | 0.342 | 0.45 | 0.432 | 0.581 | 0.424 | 0.451 | 0.405 | 0.398 | 0.644 | 0.777 | 0.652 | 0.928 | 0.279 | 0.243 | 0.242 | 0.234 | 0.848 |
| NCI-H1395 | 0.98 | 0.77 | 0.476 | 0.305 | 0.261 | 0.447 | 0.264 | 0.288 | 0.299 | 0.228 | 0.948 | 1.05 | 0.975 | 1.08 | 0.39 | 0.45 | 0.367 | 0.442 | 0.973 |
| NCI-H2023 | 0.257 | 0.17 | 0.145 | 0.0801 | 0.0607 | 0.313 | 0.14 | 0.0786 | 0.0748 | 0.0408 | 0.683 | 0.572 | 0.472 | 0.587 | 0.542 | 0.185 | 0.102 | 0.0866 | 0.591 |
| NCI-H1651 | 0.871 | 0.785 | 0.569 | 0.509 | 0.346 | 0.609 | 0.537 | 0.402 | 0.122 | 0.116 | 1.2 | 1.1 | 0.874 | 1.3 | 0.438 | 0.363 | 0.276 | 0.401 | 0.911 |
| HARA | 0.365 | 0.401 | 0.2 | 0.132 | 0.118 | 0.511 | 0.114 | 0.307 | 0.302 | 0.195 | 1.07 | 0.952 | – | 0.785 | 0.274 | 0.388 | 0.232 | 0.192 | 0.918 |
| NCI-H1944 | 0.373 | 0.331 | 0.356 | 0.252 | 0.195 | 0.469 | 0.267 | 0.282 | 0.12 | 0.118 | 0.745 | 0.883 | 0.754 | 0.856 | 0.21 | 0.225 | 0.138 | 0.127 | 0.853 |
| NCI-H2405 | 0.355 | 0.161 | 0.148 | 0.0927 | 0.0684 | 0.199 | 0.147 | 0.131 | 0.0894 | 0.0973 | 0.725 | 0.794 | 0.713 | 0.917 | 0.217 | 0.231 | 0.197 | 0.224 | 0.796 |
| 201T | 0.769 | – | 0.703 | 0.58 | 0.485 | 0.935 | – | 0.699 | 0.354 | 0.245 | 0.967 | 1.04 | 1.02 | 1.02 | 0.592 | 0.555 | 0.348 | 0.284 | 0.999 |
| RERF-LC-KJ | 0.795 | 0.604 | – | 0.328 | 0.207 | 0.599 | 0.403 | 0.302 | 0.197 | 0.224 | 0.837 | 0.889 | 0.65 | 0.746 | 0.908 | 1.01 | 0.777 | 0.571 | 0.877 |
| Calu-6 | – | – | – | – | – | – | – | – | – | – | 1.06 | 1.09 | 0.774 | 1.23 | – | – | – | – | 1.08 |
| NCI-H1650 | 0.501 | 0.364 | 0.187 | 0.112 | 0.0438 | 0.379 | 0.414 | 0.242 | 0.195 | 0.0786 | – | – | – | – | 0.297 | 0.291 | 0.202 | 0.218 | – |
| NCI-H1648 | 0.586 | 0.299 | 0.0693 | 0.25 | 0.265 | 0.517 | 0.167 | 0.269 | 0.246 | 0.271 | – | – | – | – | – | – | – | – | – |
| ChaGo-K-1 | 0.911 | – | 0.796 | 0.579 | 0.455 | 0.791 | – | 0.359 | 0.147 | 0.144 | – | – | – | – | 0.558 | 0.595 | 0.386 | 0.39 | – |
| NCI-H1623 | – | – | – | – | – | – | – | – | – | – | – | – | – | – | 0.412 | 0.64 | 0.256 | 0.232 | – |
| HCC-44 | 1.04 | – | 0.444 | – | 0.322 | 1.1 | – | 0.517 | 0.27 | 0.2 | 0.928 | 0.987 | 0.761 | 0.821 | – | – | – | – | 0.891 |
| NCI-H522 | 0.667 | 0.775 | 0.627 | 0.623 | 0.59 | 0.856 | 0.452 | 0.75 | 0.397 | 0.484 | – | – | – | – | 0.844 | 0.852 | 0.979 | 0.868 | – |
| ABC-1 | – | – | – | – | – | 0.667 | 0.411 | 0.454 | 0.147 | 0.117 | 1.25 | 1.02 | 0.811 | 1 | 0.561 | 0.662 | 0.576 | 0.558 | 0.861 |
| SW 900 | 0.494 | 0.366 | 0.444 | 0.128 | 0.164 | 0.294 | 0.15 | 0.171 | 0.146 | 0.0929 | – | – | – | – | 0.507 | 0.539 | 0.548 | 0.577 | – |
| IA-LM | – | – | – | – | – | 0.732 | 0.312 | 0.0781 | 0.0987 | 0.105 | 0.825 | 0.955 | – | 1.13 | – | – | – | – | 0.977 |
| A549 | – | – | – | – | – | – | – | – | – | – | 0.866 | 1.04 | – | 0.87 | – | – | – | – | 0.758 |
| NCI-H1792 | 0.374 | 0.263 | 0.164 | 0.0813 | 0.0466 | – | – | – | – | – | 0.959 | 0.717 | – | 0.866 | 0.929 | 0.714 | 0.277 | 0.196 | 0.726 |
